{"source": "paper PMC9413491", "about": "“A Novel and Cross-Species Active Mammalian INDY (NaCT) Inhibitor Ameliorates Hepatic Steatosis in Mice with Diet-Induced Obesity” (Metabolites, 2022)", "key": {"[1]": {"test": "Viability (PrestoBlue) / cytotoxicity in HepG2 cells", "type": "cell-based", "conditions": "human, parallel to fatty acid synthesis assay", "experimental": "We performed the fatty acid synthesis assay in HepG2 cells. We seeded cells into black clear-bottom 96-well plates (Corning 3340 cell plate) 75,000/well and incubated at 37 °C. After 16–24 h, we washed the plates once with 100 µL PBS (+CaCl2 +MgCl2) and added 50 µL assay medium ([…] containing 11 mM glucose, 10 mM HEPES, and 1 nM insulin) per well. Then, we applied test substances in assay medium (10 µL, 5% DMSO) and incubated for 20 min at 37 °C. Thereafter, we added 10 µL assay medium containing [14C] citrate (final concentration 50 µM) and PrestoBlue reagent (1× final concentration; Thermo Fisher Scientific, Waltham, MA, USA) and incubated for 180 min (37 °C, 5% CO2). We measured cell viability (ViewLux instrument, Perkin Elmer). We removed medium by vacuum aspiration and washed cells once with 100 µL PBS (+CaCl2 +MgCl2). We lysed cells with 50 µL lysis buffer (0.1 N NaOH, 0.1 % Triton X-100) and sealed plates with Tape Pads and vortexed. For the saponification reaction, we incubated plates for 16–24 h at 70 °C in a humidified environment. Then, we removed seals and added 200 µL 0.1 N HCl to neutralise the pH. We transferred 150 µL from each into corresponding wells of a 96-well Flash plate (Perkin Elmer) and sealed with TopSeal A (Perkin Elmer). […] We measured [14C] radioactivity (microbeta2, Perkin Elmer). […]"}, "DIO mice [2]": {"test_system": "DIO mice", "test": "28-day treatment of diet-induced obesity (DIO) mice", "type": "in vivo, mouse", "experimental": "We performed in vivo testing in DIO mice (for 7- and 28-day treatment), an established model designed to study high-fat-diet-induced hepatic steatosis and associated cardiometabolic traits. We established DIO in four-week-old C57BL/6N male mice that were fed a high-fat diet (HFD, 60 kcal% fat, D12492; Research Diets, Inc.; New Brunswick, NJ, USA) until 11 weeks of age.\nMice were housed at a temperature of 22–24 °C, with a day/night cycle of 12/12 h (07:00-19:00–07:00) and had access to the appropriate diet and tap water ad libitum. Animals allocated to the pair-feeding group were fed the same amount of food as the corresponding treatment group had consumed the day before. Food was only withdrawn for overnight fasting on the penultimate study day before the section on the final day. We randomised groups of n = 12 for treatment and n = 8 for pair-feeding cage-wise according to random fed blood glucose levels and body weight before the study treatment was started. For all animals, the high-fat diet was started at the same age.\nWe treated DIO mice with the inhibitor or corresponding vehicle (5% DMSO/10% Cremophor® EL/85% water) twice a day at the same time by oral gavage according to their grouping (5, 15, and 50 mg/kg dose groups, and vehicle control groups). During the study, we measured body weight and blood glucose. We measured glucose concentrations in tail tip blood samples with the “Accu-Chek® Performa” glucometer (Roche, Basel, Switzerland, range <33.3 mmol/L). We determined random fed blood glucose and fasting blood glucose after overnight fasting.\nAn intraperitoneal glucose tolerance test was performed after an overnight fasting period. Mice were injected with 1g/kg glucose and blood glucose was measured over a period of 180 min.\nAt the end of study day 28, we obtained blood and liver samples. In anesthetised animals, we collected retro-orbital blood samples in non-coated tubes (Sarstedt, Inc., Nümbrecht, Germany). Then, we sacrificed animals by cervical dislocation. We dissected and weighed the livers and immediately froze liver samples in liquid nitrogen for further analysis.\nFor serum sample generation, we centrifuged blood at 4000× g for 10 min and dispensed serum samples into a 110 µL plus an additional aliquot. Samples were stored at −80 °C. For Piccolo® system (Abaxis, Inc., Union City, CA, USA) analysis (lipid panel including triglycerides and cholesterol), we used a 110 µL serum aliquot.\nThe frozen tissue from liver samples were used to determine the triglyceride content via triglyceride assay according to the manufacturer’s protocol (Sigma-Aldrich, Cat.No.TR0100) using glycerol as a standard (Sigma-Aldrich, Glycerol G7793, St. Louis, MO, USA).\nWe determined body composition in mice using the non-invasive Bruker Minispec Instrument MQ 10 NMR Analyser (Bruker, Billerica, MA, USA). We placed mice in a clear, plastic cylinder and kept them immobile by inserting a tight-fitting plunger into the cylinder. For scanning, the tube was placed in the sample chamber for approximately one minute. Body composition was calculated and related to whole body weight.\nWe isolated total RNA from individual liver samples from all animals in 1.5 mL Trizol reagent (Life Technologies, Carlsbad, CA, USA) at 4 °C according to the manufacturer’s instructions. Then, we purified total RNA utilising the RNeasy Mini Kit (Qiagen, Hilden, Germany) with DNase-treatment to completely remove genomic DNA according to the instructions of the manufacturer. Subsequently, RNA was reverse transcribed using Superscript II RnaseH Reverse Transcriptase (Life Technologies) and subjected to Taqman analysis using the Taqman Fast Advanced Master Mix (Applied Biosystems, Weiterstadt, Germany). The Mix contains AmpliTaq® Fast DNA Polymerase, AmpErase UNG, dNTPs with dUTP, passive reference Rox and optimised buffer components. Quantitative PCR was performed in the Quantstudio 7 Flex System (Applied Biosystems, Weiterstadt, Germany). […]"}, "[3]": {"test": "Blood-brain barrier penetration: brain versus liver concentrations", "type": "in vivo", "conditions": "brain vs liver"}, "DIO mice [4]": {"test_system": "DIO mice", "test": "Short-term tolerability studies in the DIO mouse model", "type": "in vivo", "excerpt": "Next, we tested the functional activity of ETG-5773 in vivo to establish whether the effects on in vitro citrate uptake and FAS were physiologically relevant. […] Therefore, we applied pair-fed control groups to explore the pharmacological actions on metabolism without interference from food-intake effects.\n[…] […] The potential for off-target effects on feeding behaviour provided the rational for including pair-fed control groups."}, "[5]": {"conditions": "15 mg/kg oral twice daily, 28 days"}, "[6]": {"conditions": "15 mg/kg oral twice daily, 28 days, p < 0.001"}, "[7]": {"conditions": "15 mg/kg oral twice daily, 28 days, p < 0.01"}, "[8]": {"conditions": "15 mg/kg oral twice daily, 28 days, p < 0.05"}}, "data": [{"smiles": "O=C(Nc1cc(Cl)cc(C(F)(F)F)c1)OCCC(F)(F)F", "note": "[ETG-5773]", "values": [{"measurement": "IC50 at 180 min", "setting": "[1]", "result": "> 50", "unit": "µM"}, {"measurement": "Glucose excursion AUC (IPGTT) vs pair-fed control", "setting": "DIO mice [2]; 15 mg/kg oral twice daily", "result": "not significant"}, {"measurement": "Glucose tolerance (IPGTT) vs vehicle control and pair-fed group", "setting": "DIO mice [2]; 15 mg/kg oral twice daily, 1 g/kg glucose i.p., all p < 0.05", "result": "significantly improved glucose tolerance"}, {"measurement": "Plasma cholesterol concentrations", "setting": "DIO mice [2]; [5]", "result": "no effect"}, {"measurement": "Plasma triglyceride concentrations vs vehicle", "setting": "DIO mice [2]; [5]", "result": "though not compared to the vehicle"}, {"measurement": "Reduction in fasting insulin vs pair-fed", "setting": "DIO mice [2]; 15 mg/kg oral twice daily, 28 days, non-significant p = 0.2", "result": 70, "unit": "%"}, {"measurement": "Reduction in body weight vs vehicle group", "setting": "DIO mice [2]; 15 mg/kg oral twice daily, 28 days, p < 0.0001", "result": 19, "unit": "%"}, {"measurement": "Reduction in fasting blood glucose vs pair-fed", "setting": "DIO mice [2]; [6]", "result": 25, "unit": "%"}, {"measurement": "Reduction in hepatic triglyceride content vs pair-fed", "setting": "DIO mice [2]; [6]", "result": 25, "unit": "%"}, {"measurement": "Plasma triglyceride concentrations vs pair-fed", "setting": "DIO mice [2]; [7]", "result": "slightly increased"}, {"measurement": "Reduction in body weight vs pair-fed group", "setting": "DIO mice [2]; [7]", "result": 14, "unit": "%"}, {"measurement": "Decrease in fasting blood glucose vs vehicle", "setting": "DIO mice [2]; [8]", "result": 17, "unit": "%"}, {"measurement": "Reduction in fasting insulin vs vehicle", "setting": "DIO mice [2]; [8]", "result": 75, "unit": "%"}, {"measurement": "Glucose excursion AUC (IPGTT) vs vehicle control", "setting": "DIO mice [2]; 15 mg/kg oral twice daily, p < 0.05", "result": "significantly reduced"}, {"measurement": "Hepatic Fasn mRNA vs pair-fed group", "setting": "DIO mice [2]; 15 mg/kg twice daily, 28 days, p 0.09", "result": "trend for reduction"}, {"measurement": "Hepatic Srebf1 mRNA vs vehicle control and pair-fed", "setting": "DIO mice [2]; 15 mg/kg twice daily, 28 days, p < 0.0001", "result": "significantly downregulated"}, {"measurement": "Hepatic Scd1 mRNA vs vehicle control and pair-fed", "setting": "DIO mice [2]; 15 mg/kg twice daily, 28 days, p < 0.0001 vehicle, p < 0.001 pair-fed", "result": "significantly downregulated"}, {"measurement": "Hepatic Acly mRNA vs vehicle control and pair-fed", "setting": "DIO mice [2]; 15 mg/kg twice daily, 28 days, p < 0.001 vehicle, p < 0.01 pair-fed", "result": "significantly downregulated"}, {"measurement": "Hepatic Fasn mRNA vs vehicle control", "setting": "DIO mice [2]; 15 mg/kg twice daily, 28 days, p < 0.01", "result": "significantly downregulated"}, {"measurement": "Hepatic Acc1 mRNA vs vehicle control", "setting": "DIO mice [2]; 15 mg/kg twice daily, 28 days, p < 0.05", "result": "significantly downregulated"}, {"measurement": "Hepatic Acc1 mRNA vs pair-fed group", "setting": "DIO mice [2]; 15 mg/kg twice daily, 28 days, p < 0.1", "result": "trend for reduction"}, {"measurement": "Body fat as percentage of body weight vs vehicle and pair-fed", "setting": "DIO mice [2]; 15 mg/kg twice daily, day 22", "result": "significant decrease"}, {"measurement": "Lean mass as percentage of body weight vs vehicle and pair-fed", "setting": "DIO mice [2]; 15 mg/kg twice daily, day 22", "result": "significant increase"}, {"measurement": "Fat mass (NMR) vs vehicle control and pair-fed group", "setting": "DIO mice [2]; 15 mg/kg twice daily, day 22, p < 0.0001 vs vehicle, p < 0.01 vs pair-fed", "result": "markedly reduced"}, {"measurement": "Lean mass (NMR) vs vehicle control", "setting": "DIO mice [2]; 15 mg/kg twice daily, day 22, p < 0.01, not significant vs pair-fed", "result": "significantly lower"}, {"measurement": "Concentration in brain relative to liver (lower)", "setting": "[3]", "result": 30, "unit": "fold"}, {"measurement": "Tolerability of the selected dose", "setting": "DIO mice [4]; 15 mg/kg twice daily", "result": "well tolerated"}, {"measurement": "Food intake", "setting": "DIO mice [4]; preliminary short-term tolerability studies, DIO mouse model", "result": "reduced food intake"}]}]}
